In patent publication US20210219549A1 (priority 2018, published 2021):
Read-outs that look alike come from different tables or passages of the source.

What was measured:
[1] = tested on: Xylella fastidiosa strain Temecula-1 (PDT); experiment: microbe, parasite or virus in culture; format: cell-based; details: for inhibition at 50 µM / inhibition at 25 µM: Xylella fastidiosa; for inhibition at 50 µM: 48 h, read-out: growth inhibition of Temecula1, 50 μM, 48 hrs, relative to untreated control; for inhibition / inhibition at 25 µM: 25 uM
[2] = tested on: X. fastidiosa Temecula 1 in V. vinifera cv. Carignane; format: in vivo, Vitis vinifera; details: for leaves with PD symptoms: at the end of 3 months, untreated nearly 100%; for progression of PD symptoms: in vivo
[3] = tested on: grapevine leaves (V. vinifera cv. Carignane); experiment: Leaf disc phytotoxicity, chlorophyll loss
[4] = tested on: grapevine leaves (V. vinifera cv. Carignane)
grapevines = experiment: Visible phytotoxicity in greenhouse after foliar spray or soil drench
[5] = tested on: Xf PD strain in V. vinifera grapevines; set-up: species or system Vitis vinifera; details: in vivo
[6] = tested on: Ca. Liberibacter asiaticus (Las); format: in vivo, C. paradisi; details: soil drench 15 g/tree, grapefruits, as early as 20 days post treatment
[7] = tested on: Ca. Liberibacter asiaticus (Las); format: in vivo, C. sinensis; details: soil drench 1 g/tree, Hamlins, as early as 20 days post treatment

Q: Which inhibition at 50 µM [1] does the source give for `Cc1cc2c(C(C)C)c(O)c(O)c(C=O)c2c(O)c1-c1c(C)cc2c(C(C)C)c(O)c(O)c(C=O)c2c1O` [gossypol] here?
A: > 90%

Q: Which “leaves with PD symptoms” value [2] does the source give for `CC(C)(C)CC(C)(C)c1ccc(OCCOCC[N+](C)(C)Cc2ccccc2)cc1` [Benzethonium chloride] here?
A: ~50%

Q: And the “progression of PD symptoms” value [2]?
A: significantly reduced as well as delayed progression of PD symptoms

Q: And the “phytotoxicity in the chlorophyll degradation assay” value ([3]; 25 mM)?
A: no appreciable phytotoxicity

Q: What about the “loss in chlorophyll content” value [4] of the same molecule?
A: increasingly significant loss in chlorophyll content

Q: And the visible phytotoxicity (grapevines; foliar sprays)?
A: not evident

Q: What about the visible phytotoxicity (grapevines; soil drench) of the same molecule?
A: not evident

Q: How did the inhibition [1] turn out when `Cc1nccc2c(C)c3[nH]c4ccccc4c3cc12` [olivacine] was run?
A: 100%

Q: Which inhibition at 25 µM [1] does the source give for `CC(=O)Oc1ccccc1C(=O)Nc1ncc([N+](=O)[O-])s1` [Nitazoxanide] here?
A: 100%

Q: How did the inhibition at 25 µM [1] turn out when `CC(Cc1ccc(O)c(O)c1)C(C)Cc1ccc(O)c(O)c1` (centres unmarked) [4,4′-(2,3 dimethyltetramethylene) dipyrocatechol] was run?
A: 100%

Q: And the inhibition at 50 µM [1]?
A: > 90%

Q: For `CC1=CC(=O)c2ccccc2C1=O` [menadione, 2-methyl-1,4-naphthoquinone], which “leaves with PD symptoms” value [2] is on record?
A: ~50%

Q: And the “progression of PD symptoms” value [2]?
A: significantly reduced as well as delayed progression of PD symptoms

Q: What about the “control of the progression of PD in field conditions” value [5] of the same molecule?
A: Effective

Q: What about the “loss in total chlorophyll content” value ([3]; grapevine leaf discs, within 48 hours, all concentrations tested (as low as 25 mM), vs water-treated control) of the same molecule?
A: ~40%

Q: And the “Las metabolic activity (peroxidase gene expression relative to EF1 alpha)” value [6]?
A: measureable suppression of Las metabolic activity

Q: And the inhibition at 25 µM [1]?
A: 100%

Q: And the inhibition at 50 µM [1]?
A: > 90%

Q: And the “Las metabolic activity (peroxidase gene expression relative to EF1 alpha)” value [7]?
A: measureable suppression of Las metabolic activity

Q: What about the visible phytotoxicity (grapevines; foliar sprays) of the same molecule?
A: sporadic patches of purple pigmentation and necrosis

Q: And the visible phytotoxicity (grapevines; soil drench)?
A: not evident

Q: With `COc1ccc2[nH]c3c(C)c4ccncc4c(C)c3c2c1` [9-methoxyellipticine] as the molecule, how does the inhibition [1] read?
A: 100%

Q: Which inhibition [1] does the source give for `Cc1cc2nc3c(=O)[nH]c(=O)nc-3n(C[C@H](O)[C@H](O)[C@H](O)CO)c2cc1N(C)C` [roseoflavin] here?
A: 100%
